Values quoted from earlier work as cited in PubChem BioAssay AID1259409 (Chemical Carcinogenesis Research Information System (CCRIS), 2018).

System: rodent chemically induced tumor inhibition, incidence and multiplicity
Test: CCRIS tumor inhibitor studies
Settings: Route [Inhibitor]: ORAL, Species: RAT, Promoter: NONE USED

Q: Which results are given for `O=C1O[C@H]([C@@H](O)CO)C(O)=C1O`?
A: tumour outcome (control, treated, inhibition, significance) (Carcinogen: N-ETHYL-N-(4-HYDROXYBUTYL)NITROSAMINE, 54897-62-0, Dose [Inhibitor]: 5% IN BASAL DIET ADMINISTERED SIMULTANEOUSLY WITH CARCINOGEN DOSE FOR 20 WK (STUDY DURATION: 20 WK), Strain/Sex: F344/MALE, Target Tissue: Type of Lesion: BLADDER: PAPILLOMA, Dose [Carcinogen]: 0.021% IN DRINKING WATER FOR 20 WK): 14/15 (93%), 12/15 (80%), 14%, not significant; tumour outcome (control, treated, inhibition, significance) (Carcinogen: N-METHYL-N-NITROSOUREA, 684-93-5, Dose [Inhibitor]: 0, 5% IN DIET BEGINNING POST CARCINOGEN TREATMENT AND CONTINUING FOR 23 WK (STUDY DURATION: 25 WK), Strain/Sex: F344/MALE, Target Tissue: Type of Lesion: FORESTOMACH: PAPILLOMA, Dose [Carcinogen]: 50 MG/KG 4/2 WK): 8/17 (47%), 7/20 (35%), 26%, not calculated; tumour outcome (control, treated, inhibition, significance) (Carcinogen: N-METHYL-N-NITROSOUREA, 684-93-5, Dose [Inhibitor]: 0, 5% IN DIET BEGINNING POST CARCINOGEN TREATMENT AND CONTINUING FOR 23 WK (STUDY DURATION: 25 WK), Strain/Sex: F344/MALE, Target Tissue: Type of Lesion: FORESTOMACH: SQUAMOUS CELL CARCINOMA, Dose [Carcinogen]: 50 MG/KG 4/2 WK): 2/17 (12%), 2/20 (10%), 17%, not calculated; tumour outcome (control, treated, inhibition, significance) (Carcinogen: N-METHYL-N-NITROSOUREA, 684-93-5, Dose [Inhibitor]: 0, 5% IN DIET BEGINNING POST CARCINOGEN TREATMENT AND CONTINUING FOR 23 WK (STUDY DURATION: 25 WK), Strain/Sex: F344/MALE, Target Tissue: Type of Lesion: HEMATOPOIETIC SYSTEM: LYMPHOMA OR LEUKEMIA, Dose [Carcinogen]: 50 MG/KG 4/2 WK): 3/17 (18%), 4/20 (20%), -11%, not calculated; tumour outcome (control, treated, inhibition, significance) (Carcinogen: N-METHYL-N-NITROSOUREA, 684-93-5, Dose [Inhibitor]: 0, 5% IN DIET BEGINNING POST CARCINOGEN TREATMENT AND CONTINUING FOR 23 WK (STUDY DURATION: 25 WK), Strain/Sex: F344/MALE, Target Tissue: Type of Lesion: SMALL INTESTINE: ADENOCARCINOMA, Dose [Carcinogen]: 50 MG/KG 4/2 WK): 9/17 (53%), 0/20 (0%), 100%, not calculated; tumour outcome (control, treated, inhibition, significance) (Carcinogen: N-METHYL-N-NITROSOUREA, 684-93-5, Dose [Inhibitor]: 0, 5% IN DIET BEGINNING POST CARCINOGEN TREATMENT AND CONTINUING FOR 23 WK (STUDY DURATION: 25 WK), Strain/Sex: F344/MALE, Target Tissue: Type of Lesion: SMALL INTESTINE: ADENOMA, Dose [Carcinogen]: 50 MG/KG 4/2 WK): 10/17 (59%), 16/20 (80%), -36%, not calculated; tumour outcome (control, treated, inhibition, significance) (Carcinogen: N-METHYL-N-NITROSOUREA, 684-93-5, Dose [Inhibitor]: 0, 5% IN DIET BEGINNING POST CARCINOGEN TREATMENT AND CONTINUING FOR 23 WK (STUDY DURATION: 25 WK), Strain/Sex: F344/MALE, Target Tissue: Type of Lesion: THYROID: ADENOCARCINOMA, Dose [Carcinogen]: 50 MG/KG 4/2 WK): 1/17 (6%), 0/20 (0%), 100%, not calculated; tumour outcome (control, treated, inhibition, significance) (Carcinogen: N-METHYL-N-NITROSOUREA, 684-93-5, Dose [Inhibitor]: 0, 5% IN DIET BEGINNING POST CARCINOGEN TREATMENT AND CONTINUING FOR 23 WK (STUDY DURATION: 25 WK), Strain/Sex: F344/MALE, Target Tissue: Type of Lesion: THYROID: ADENOMA, Dose [Carcinogen]: 50 MG/KG 4/2 WK): 3/17 (18%), 6/20 (30%), -67%, not calculated; tumour outcome (control, treated, inhibition, significance) (Carcinogen: N-METHYL-N-NITROSOUREA, 684-93-5, Dose [Inhibitor]: 0, 5% IN DIET BEGINNING POST CARCINOGEN TREATMENT AND CONTINUING FOR 23 WK (STUDY DURATION: 25 WK), Strain/Sex: F344/MALE, Target Tissue: Type of Lesion: TONGUE: PAPILLOMA, Dose [Carcinogen]: 50 MG/KG 4/2 WK): 2/17 (12%), 4/20 (20%), -67%, not calculated; tumour outcome (control, treated, inhibition, significance) (Carcinogen: N-METHYL-N-NITROSOUREA, 684-93-5, Dose [Inhibitor]: 0, 5% IN DIET BEGINNING POST CARCINOGEN TREATMENT AND CONTINUING FOR 23 WK (STUDY DURATION: 25 WK), Strain/Sex: F344/MALE, Target Tissue: Type of Lesion: TONGUE: SQUAMOUS CELL CARCINOMA, Dose [Carcinogen]: 50 MG/KG 4/2 WK): 2/17 (12%), 2/20 (10%), 17%, not calculated; tumour outcome (control, treated, inhibition, significance) (Carcinogen: N-METHYL-N-NITROSOUREA, 684-93-5, Dose [Inhibitor]: 0, 5% IN DIET BEGINNING POST CARCINOGEN TREATMENT AND CONTINUING FOR 23 WK (STUDY DURATION: 25 WK), Strain/Sex: F344/MALE, Target Tissue: Type of Lesion: URINARY BLADDER: PAPILLOMA, Dose [Carcinogen]: 50 MG/KG 4/2 WK): 2/17 (12%), 10/20 (50%), -316%, not calculated; outcome (Carcinogen: N-METHYL-N-NITROSOUREA, 684-93-5, Dose [Inhibitor]: 0, 5% IN DIET BEGINNING POST CARCINOGEN TREATMENT AND CONTINUING FOR 23 WK (STUDY DURATION: 25 WK), Strain/Sex: F344/MALE, Target Tissue: Type of Lesion: URINARY BLADDER: TRANSITIONAL CELL CARCINOMA, Dose [Carcinogen]: 50 MG/KG 4/2 WK): 0/17 (0%), 2/20 (10%), -100%, not calculated; tumour outcome (control, treated, inhibition, significance) (Carcinogen: N-METHYL-N-NITROSOUREA, 684-93-5, Dose [Inhibitor]: 1% IN 20% FAT DIET DAILY STARTING 2 WK BEFORE START OF CARCINOGEN TREATMENT AND CONTINUING FOR DURATION OF STUDY (STUDY, Strain/Sex: F344/FEMALE, Target Tissue: Type of Lesion: COLON: ADENOMA, ADENOCARCINOMA, Dose [Carcinogen]: 2 MG 2/WK FOR 2 WK): 42%, 46%, -10%, not significant
